Tests used:
[1] = tested on: Immunoglobulin levels (IgG, IgA and IgM); test: First observational study: serum immunoglobulin levels by nephelometry, clozapine-treated vs clozapine-naive patients; assay type: in vivo, human
[2] = tested on: T follicular helper cells and T regulatory cells; test: Mouse CIA model: T follicular helper and T regulatory cells in spleen and lymph node by flow cytometry; assay type: in vivo, DBA/1 mice
[3] = Michel. L. et al., 2015; cited from earlier work
[4] = human, in vivo; cited from earlier work
[5] = sub-group A: all diagnoses, all smoking, secondary causes not excluded, n=123
[6] = sub-group A: all diagnoses, all smoking, secondary causes not excluded, n=123, listed as clozapine
[7] = sub-group B: possible secondary causes excluded, n=94
[8] = sub-group C: schizophrenia diagnoses only, secondary causes excluded, n=87
[9] = sub-group D: smokers only, secondary causes excluded, n=57

Compound: CN1CCN(C2=Nc3cc(Cl)ccc3Nc3ccccc32)CC1 [Clozapine, clozapine]
- Serum IgG <4 g/L, percentage of patients [1, 5]: 1.6%
- Serum IgG <5 g/L, percentage of patients [1, 5]: 3.3%
- Serum IgG <6 g/L (below reference range 6-16 g/L), percentage of patients [1, 5]: 9.8%
- Serum IgM <0.2 g/L, percentage of patients [1, 5]: 8.1%
- Serum IgM <0.3 g/L, percentage of patients [1, 5]: 16.3%
- Serum IgM <0.4 g/L, percentage of patients [1, 5]: 29.3%
- Serum IgM <0.5 g/L (below reference range 0.5-1.9 g/L), percentage of patients [1, 5]: 38.2%
- Serum IgA <0.8 g/L (below reference range 0.8-4.0 g/L), percentage of patients [1, 6]: 13.0%
- Serum IgG <6 g/L (below reference range 6-16 g/L), percentage of patients [1, 6]: 9.8%
- Serum IgM <0.5 g/L (below reference range 0.5-1.9 g/L), percentage of patients [1, 6]: 38.2%
- Serum IgA <0.5 g/L, percentage of patients [1, 7]: 2.1%
- Serum IgA <0.6 g/L, percentage of patients [1, 7]: 2.1%
- Serum IgA <0.7 g/L, percentage of patients [1, 7]: 6.4%
- Serum IgA <0.8 g/L (below reference range 0.8-4.0 g/L), percentage of patients [1, 7]: 13.8%
- Serum IgG <3 g/L, percentage of patients [1, 7]: 1.1%
- Serum IgG <4 g/L, percentage of patients [1, 7]: 1.1%
- Serum IgG <5 g/L, percentage of patients [1, 7]: 2.1%
- Serum IgG <6 g/L (below reference range 6-16 g/L), percentage of patients [1, 7]: 8.4%
- Serum IgM <0.2 g/L, percentage of patients [1, 7]: 5.3%
- Serum IgM <0.3 g/L, percentage of patients [1, 7]: 12.8%
- Serum IgM <0.4 g/L, percentage of patients [1, 7]: 26.6%
- Serum IgM <0.5 g/L (below reference range 0.5-1.9 g/L), percentage of patients [1, 7]: 34.0%
- Serum IgA <0.5 g/L, percentage of patients [1, 8]: 2.3%
- Serum IgA <0.6 g/L, percentage of patients [1, 8]: 3.5%
- Serum IgA <0.7 g/L, percentage of patients [1, 8]: 6.9%
- Serum IgA <0.8 g/L (below reference range 0.8-4.0 g/L), percentage of patients [1, 8]: 14.9%
- Serum IgG <3 g/L, percentage of patients [1, 8]: 1.2%
- Serum IgG <4 g/L, percentage of patients [1, 8]: 1.2%
- Serum IgG <5 g/L, percentage of patients [1, 8]: 2.3%
- Serum IgG <6 g/L (below reference range 6-16 g/L), percentage of patients [1, 8]: 9.2%
- Serum IgM <0.2 g/L, percentage of patients [1, 8]: 5.8%
- Serum IgM <0.3 g/L, percentage of patients [1, 8]: 12.6%
- Serum IgM <0.4 g/L, percentage of patients [1, 8]: 27.6%
- Serum IgM <0.5 g/L (below reference range 0.5-1.9 g/L), percentage of patients [1, 8]: 35.6%
- Serum IgA <0.5 g/L, percentage of patients [1, 9]: 3.5%
- Serum IgA <0.6 g/L, percentage of patients [1, 9]: 3.5%
- Serum IgA <0.7 g/L, percentage of patients [1, 9]: 3.5%
- Serum IgA <0.8 g/L (below reference range 0.8-4.0 g/L), percentage of patients [1, 9]: 10.5%
- Serum IgG <3 g/L, percentage of patients [1, 9]: 1.8%
- Serum IgG <4 g/L, percentage of patients [1, 9]: 1.8%
- Serum IgG <5 g/L, percentage of patients [1, 9]: 1.8%
- Serum IgG <6 g/L (below reference range 6-16 g/L), percentage of patients [1, 9]: 8.8%
- Serum IgM <0.2 g/L, percentage of patients [1, 9]: 1.78%
- Serum IgM <0.3 g/L, percentage of patients [1, 9]: 12.3%
- Serum IgM <0.4 g/L, percentage of patients [1, 9]: 26.3%
- Serum IgM <0.5 g/L (below reference range 0.5-1.9 g/L), percentage of patients [1, 9]: 33.3%
- Proportions of CD4+PD1+CXCR5+ T follicular helper cells in lymph node or spleen ([2]; 5 or 10 mg/kg from day 1 or day 15): did not significantly affect
- Expression of PD-1 (MFI) in lymph node T follicular helper cells ([2]; all doses and time points): Reduced expression
- Expression of CD25 on Tregs ([2]; dosed from day 1): significantly upregulate
- Foxp3 expression on Tregs ([2]; dosed from day 1): not alter
- CXCR5 expression (MFI) on T follicular helper cells ([2]; dosed from day 1, lymph node and spleen): significant reductions
- Proportion of CD4+CD25+Foxp3+ T regulatory cells (Tregs) ([2]; higher dose tested, from day 1, lymph node and spleen): increase the proportion
- Expression of CCR7 on T follicular helper cells ([2]; lymph node and spleen): reduced expression
- CNS penetration [3]: high levels of CNS penetration
- Previously treatment refractive schizophrenia patients in whom effective [4]: approximately 60%

Source: patent publication US20210236512A1 (ZARODEX THERAPEUTICS LIMITED, priority 2018, published 2021)
